The assay has as its system metabotropic glutamate receptors. Description: displacement of 1S,3R-ACPD-sensitive [3H]glutamate binding to rat brain cell membranes (crude membranes of rat forebrain). As for the experimental part:
The binding of [^3H]glutamate was conducted with crude membranes of rat forebrain as described by Schoepp and True, Neuroscience Lett., 145, 100-104 (1992) and Wright et al., J. Neurochemistry 63, 938-945, 1994.

Turning to `N[C@]1(C(=O)O)C[C@@H](SCc2ccco2)[C@@H]2[C@@H](C(=O)O)[C@@H]21` (racemic) [Example 8, 1SR,2RS,4RS,5SR,6SR-2-Amino-4-((2-furanylmethyl)thio)bicyclo[3.1.0]hexane-2,6-dicarboxylic acid], the “affinity for metabotropic glutamate receptors (result in words)” value is “essentially inactive”.

Molecule `NC1(C(=O)O)CC(Sc2ccccc2)C2C(C(=O)O)C21` (stereo not drawn) [Example 1, 1SR,2RS,4SR,5SR,6SR-2-Amino-4-(phenylthio)-bicyclo[3.1.0]hexane-2,6-dicarboxylic acid] gave an IC50 of 242 nM.

The record behind these values is EP0774454A1, “Excitatory amino acid receptor antagonists” (ELI LILLY AND COMPANY, priority 1995, dated 1997).
